System: RNA isoforms in PNN 1-46 SMA type I patient-derived fibroblasts
Assay: RNA Abundance Modulation (RNA isoform abundance, iFPM, HiSeq RNA sequencing)
Type: cell-based, human
Settings: for RNA abundance modulation (effect on isoform fold increase): 24 hrs, PNN 1-46 fibroblasts
Method: Cells from a cell line of interest are cultured in conditions sufficient to yield the number of cells capable of generating enough RNA for subsequent sequencing steps. Cells from the tested cell line are contacted with a compound described herein.
To culture said cells, they are seeded, at appropriate concentrations in a volume of media in a cell culture container and incubated for 4, 5, 6, 7, 8, 9, 10, or more hours. A concentrated solution of compound in a vehicle (e.g., DMSO) is then added in sufficient volume to result in the intended final concentration of the compound, for example 100 nM, 500 nM, 1 μM, 5 μM, 10 μM, 15 μM, 20 μM, or more. The cells may also be treated with vehicle alone, as a control. A number of replicates of each concentration or control may be made (e.g., 2 replicates). The cells are then incubated at a constant temperature appropriate for cell culture of the particular cell line (e.g., 37° C.) for 6, 12, 18, 24, 48, or more hours. After incubation, the growth medium is removed and the cells are washed with the appropriate buffer (e.g., PBS). Cells are then removed from adherence to the cell culture container by treatment with a solution containing trypsin, and the trypsin subsequently quenched with the appropriate volume of buffer (e.g., DMEM-FBS). The cells are then pelleted with gentle centrifugation (e.g., ≤90×g centrifugal force) and resuspended in a buffer to lyse the cells for extraction of RNA. The cell lysates may then be frozen (e.g., at −80° C.) or, alternately, may immediately be used in a procedure to purify the RNA (e.g. by use of the RNEASY PLUS® minikit). The RNA from cell lysates is eluted in the appropriate volume of buffer (e.g., RNEASE-FREE H2O®). The resulting purified RNA may then be sequenced (e.g., using RNASeq) or analyzed using a human exon array (e.g., by GENECHIP® human exon array) to determine changes in the RNA levels in those cells treated with compound compared to those cells treated only with DMSO. The purified RNA may also be quantified by other methods known in the art.
Using the RNA data obtained from sequencing, exon array, or other methods, a statistical analysis can reveal changes in the RNA levels of compound-treated compared with control. For example, t-test p-values may be calculated for the data obtained through sequencing and exon array methods in order to compare compound-treated cells to those treated with the DMSO control. […] Analysis of the sequencing and exon array data may then also yield predictions about the cause of the aberrant amount of an RNA transcript in the cells (e.g., perturbation of RNA splicing, RNA transcription, or RNA stability). These predictions may be further confirmed by methods known in the art. For example, RT-PCR and RT-qPCR may be used to confirm the change in amount of RNA transcripts for one or more particular transcripts of interest.
Following the methods described above in Example 1, PNN 1-46 SMA type I patient-derived fibroblasts were treated with 300 nM or 3 μM Compounds 774 and 808 in 0.5% DMSO.
700,000 cells were seeded in 10 mL of medium (DMEM plus 10% FBS) in a T-75 flask. Cells were allowed to attach for at least 4 hrs, after which 50 μL of a 200× compound solution (100% DMSO) was added to each well, and the plate was incubated at 37° C. for 24 hrs.
At the end of the incubation period, the supernatant was removed and the cells where washed with PBS. TrypLE (Invitrogen) express solution was added (e.g. 1.5 mL per one T75 flask). The flasks were incubated for 3 to 5 min at 37° C. The trypsin was then quenched, e.g., by adding 10 mL DMEM-FBS.
Next, the cells were pelleted using gentle centrifugation without exceeding 90×g centrifugal force. The supernatant was removed and the cell pellet was re-suspended in 600 μL RLT buffer (the RLT buffer was supplemented with beta-mercaptoethanol according to the RNeasy protocol manual) by pipetting up and down until the pellet was completely dissolved […]

## CCc1nc(C)cn2nc(-c3cc(=O)n4cc(C5CCN(C)CC5)cc(C)c4n3)cc12 [Compound 774]
0.3 μM
  RNA abundance modulation (effect on isoform fold increase): modulates RNA abundance
3 μM
  RNA abundance modulation (effect on isoform fold increase): modulates RNA abundance
TACC1 NM_006283, 3 μM
  FC (x + 1): 1.1645
  L2FC (x + 1): 0.220
  L2abs (Cpd-DMSO): 8.47
  abs (Cpd-DMSO): 354 iFPM
  amp FC (x + 1): 1.16
  ave Cpd: 2506 iFPM
TAF2 NM_003184, 3 μM
  FC (x + 1): 0.4533
  L2FC (x + 1): −1.141
  L2abs (Cpd-DMSO): 9.75
  abs (Cpd-DMSO): 862 iFPM
  amp FC (x + 1): 2.21
  ave Cpd: 714 iFPM
TANC2 AJ278120, 3 μM
  FC (x + 1): 1.0181
  L2FC (x + 1): 0.026
  L2abs (Cpd-DMSO): 1.28
  abs (Cpd-DMSO): 2 iFPM
  amp FC (x + 1): 1.02
  ave Cpd: 136 iFPM
TANC2 AK001077, 3 μM
  FC (x + 1): 4.5130
  L2FC (x + 1): 2.174
  L2abs (Cpd-DMSO): 1.81
  abs (Cpd-DMSO): 4 iFPM
  amp FC (x + 1): 4.51
  ave Cpd: 4 iFPM
TANC2 AK021886, 3 μM
  FC (x + 1): 0.4015
  L2FC (x + 1): −1.317
  L2abs (Cpd-DMSO): 2.40
  abs (Cpd-DMSO): 5 iFPM
  amp FC (x + 1): 2.49
  ave Cpd: 3 iFPM
TANC2 BC144357, 3 μM
  FC (x + 1): 0.3363
  L2FC (x + 1): −1.572
  L2abs (Cpd-DMSO): 8.29
  abs (Cpd-DMSO): 313 iFPM
  amp FC (x + 1): 2.97
  ave Cpd: 158 iFPM
TANC2 NM_025185, 3 μM
  FC (x + 1): 1.0124
  L2FC (x + 1): 0.018
  L2abs (Cpd-DMSO): 4.47
  abs (Cpd-DMSO): 22 iFPM
  amp FC (x + 1): 1.01
  ave Cpd: 1812 iFPM
TARBP1 NM_005646, 3 μM
  FC (x + 1): 0.1192
  L2FC (x + 1): −3.068
  L2abs (Cpd-DMSO): 8.52
  abs (Cpd-DMSO): 367 iFPM
  amp FC (x + 1): 8.39
  ave Cpd: 49 iFPM
TBC1D15 AK307922, 3 μM
  FC (x + 1): 1.0252
  L2FC (x + 1): 0.036
  L2abs (Cpd-DMSO): 2.70
  abs (Cpd-DMSO): 6 iFPM
  amp FC (x + 1): 1.03
  ave Cpd: 263 iFPM
TBC1D15 NM_022771, 3 μM
  FC (x + 1): 1.1954
  L2FC (x + 1): 0.257
  L2abs (Cpd-DMSO): 3.99
  abs (Cpd-DMSO): 16 iFPM
  amp FC (x + 1): 1.20
  ave Cpd: 96 iFPM
TBC1D15 NM_001146213, 3 μM
  FC (x + 1): 1.4119
  L2FC (x + 1): 0.498
  L2abs (Cpd-DMSO): 8.07
  abs (Cpd-DMSO): 270 iFPM
  amp FC (x + 1): 1.41
  ave Cpd: 923 iFPM
TBC1D15 NM_001146214, 3 μM
  FC (x + 1): 1.0153
  L2FC (x + 1): 0.022
  L2abs (Cpd-DMSO): −0.65
  abs (Cpd-DMSO): 1 iFPM
  amp FC (x + 1): 1.02
  ave Cpd: 41 iFPM
TBC1D15 NR_027449, 3 μM
  FC (x + 1): 0.1625
  L2FC (x + 1): −2.621
  L2abs (Cpd-DMSO): 6.94
  abs (Cpd-DMSO): 123 iFPM
  amp FC (x + 1): 6.15
  ave Cpd: 23 iFPM
TEP1 AB209669, 3 μM
  FC (x + 1): 1.0000
  L2FC (x + 1): 0.000
  L2abs (Cpd-DMSO): 0
  abs (Cpd-DMSO): 0 iFPM
  amp FC (x + 1): 1.00
  ave Cpd: 0 iFPM
TEP1 AK303307, 3 μM
  FC (x + 1): 1.3304
  L2FC (x + 1): 0.412
  L2abs (Cpd-DMSO): 1.91
  abs (Cpd-DMSO): 4 iFPM
  amp FC (x + 1): 1.33
  ave Cpd: 14 iFPM
TEP1 BC143812, 3 μM
  FC (x + 1): 0.8125
  L2FC (x + 1): −0.300
  L2abs (Cpd-DMSO): 4.99
  abs (Cpd-DMSO): 32 iFPM
  amp FC (x + 1): 1.23
  ave Cpd: 137 iFPM
TEP1 BC143815, 3 μM
  FC (x + 1): 0.0138
  L2FC (x + 1): −6.184
  L2abs (Cpd-DMSO): 6.16
  abs (Cpd-DMSO): 72 iFPM
  amp FC (x + 1): 72.71
  ave Cpd: 0 iFPM
TEP1 BX640983, 3 μM
  FC (x + 1): 1.1188
  L2FC (x + 1): 0.162
  L2abs (Cpd-DMSO): 0.61
  abs (Cpd-DMSO): 2 iFPM
  amp FC (x + 1): 1.12
  ave Cpd: 13 iFPM
TEP1 NM_007110, 3 μM
  FC (x + 1): 1.0236
  L2FC (x + 1): 0.034
  L2abs (Cpd-DMSO): 3.20
  abs (Cpd-DMSO): 9 iFPM
  amp FC (x + 1): 1.02
  ave Cpd: 397 iFPM
TFCP2 AK308087, 3 μM
  FC (x + 1): 0.8370
  L2FC (x + 1): −0.257
  L2abs (Cpd-DMSO): 4.27
  abs (Cpd-DMSO): 19 iFPM
  amp FC (x + 1): 1.19
  ave Cpd: 98 iFPM
TFCP2 NM_005653, 3 μM
  FC (x + 1): 0.8324
  L2FC (x + 1): −0.265
  L2abs (Cpd-DMSO): 7.35
  abs (Cpd-DMSO): 163 iFPM
  amp FC (x + 1): 1.20
  ave Cpd: 808 iFPM
TFCP2 NM_001173452, 3 μM
  FC (x + 1): 4.0384
  L2FC (x + 1): 2.014
  L2abs (Cpd-DMSO): 7.49
  abs (Cpd-DMSO): 180 iFPM
  amp FC (x + 1): 4.04
  ave Cpd: 239 iFPM
TFCP2 NM_001173453, 3 μM
  FC (x + 1): 0.0531
  L2FC (x + 1): −4.236
  L2abs (Cpd-DMSO): 4.16
  abs (Cpd-DMSO): 18 iFPM
  amp FC (x + 1): 18.84
  ave Cpd: 0 iFPM
TGFBRAP1 AK021697, 3 μM
  FC (x + 1): 0.2793
  L2FC (x + 1): −1.840
  L2abs (Cpd-DMSO): 4.66
  abs (Cpd-DMSO): 25 iFPM
  amp FC (x + 1): 3.58
  ave Cpd: 9 iFPM
TGFBRAP1 NM_004257, 3 μM
  FC (x + 1): 0.0064
  L2FC (x + 1): −7.294
  L2abs (Cpd-DMSO): 7.29
  abs (Cpd-DMSO): 156 iFPM
